This note sets out measurements from ChEMBL document CHEMBL5579809, “Exploration of bromodomain ligand-linker conjugation sites for efficient CBP/p300 heterobifunctional degrader activity” (Bioorg Med Chem Lett, 2024).

Calls of active or inactive are those of the source. The rule behind the calls is not given here.

In assay [1] the target is T1, Protein cereblon/Histone acetyltransferase p300 (Homo sapiens) (UniProt Q09472+Q96SW2). The assay can be described thus: PROTAC activity at CRBN/HiBiT-tagged p300 in human HAP1 cells assessed as total cumulative degradation by measuring AUC at 1 nM measured over 24 hrs by luminescence based analysis. The assay is classed as cell-based. (The HiBiT peptide binds its large partner to form an active luciferase.)

Assay [2] addresses T2, Protein cereblon/CREB-binding protein (Homo sapiens) (UniProt Q92793+Q96SW2). Nature of the assay: PROTAC activity at CRBN/HiBiT-tagged CBP in human HAP1 cells assessed as total cumulative degradation by measuring AUC at 1 nM measured over 24 hrs by luminescence based analysis. The assay is classed as cell-based.
Assay [3] has as its target T1, Protein cereblon/Histone acetyltransferase p300 (Homo sapiens). The assay can be described thus: PROTAC activity at CRBN/HiBiT-tagged p300 in human HAP1 cells assessed as total cumulative degradation by measuring AUC at 1000 nM measured over 24 hrs by luminescence based analysis. The assay is classed as cell-based.
For assay [4], the target named is T2, Protein cereblon/CREB-binding protein (Homo sapiens). Nature of the assay: Binding affinity to recombinant CRBN/CBP bromodomain (unknown origin) assessed as ternary complex formation at 10 to 100 nM by Alphascreen-based proximity assay. It is filed as protein assay. The settings on record: dose 10-100 nM. For orientation: In Alpha technology, singlet oxygen from a donor bead excites a nearby acceptor bead.

For assay [5] the target is unchanged. The assay can be described thus: PROTAC activity at CRBN/HiBiT-tagged CBP in human HAP1 cells assessed as total cumulative degradation by measuring AUC at 0.1 nM measured over 24 hrs by luminescence based analysis. The assay is classed as cell-based.
The target is the same in assay [6]. Nature of the assay: PROTAC activity at CRBN/HiBiT-tagged CBP in human HAP1 cells assessed as total cumulative degradation by measuring AUC at 10 nM measured over 24 hrs by luminescence based analysis. It is filed as cell-based.
Assay [7] has as its target T1, Protein cereblon/Histone acetyltransferase p300 (Homo sapiens). Nature of the assay: PROTAC activity at CRBN/HiBiT-tagged p300 in human HAP1 cells assessed as induction of p300 degradation by measuring degradation rate at 100 nM measured over 24 hrs by luminescence based analysis. The assay is classed as cell-based.
Assay [8] shares this target. Nature of the assay: PROTAC activity at CRBN/HiBiT-tagged p300 in human HAP1 cells assessed as induction of p300 degradation by measuring maximal efficacy at 10 nM measured over 24 hrs by luminescence based analysis relative to control. The assay is classed as cell-based.
Assay [9] has the same target. Nature of the assay: Binding affinity to recombinant CRBN/p300 bromodomain (unknown origin) assessed as ternary complex formation at 10 to 100 nM by Alphascreen-based proximity assay. The assay is classed as protein assay. Particulars: dose 10-100 nM.
For assay [10] the target is unchanged. The assay can be described thus: PROTAC activity at CRBN/HiBiT-tagged p300 in human HAP1 cells assessed as induction of p300 degradation by measuring maximal efficacy at 100 nM measured over 24 hrs by luminescence based analysis relative to control. The assay is classed as cell-based.
Assay [11] addresses T2, Protein cereblon/CREB-binding protein (Homo sapiens). The assay can be described thus: PROTAC activity at CRBN/HiBiT-tagged CBP in human HAP1 cells assessed as total cumulative degradation by measuring AUC at 1000 nM measured over 24 hrs by luminescence based analysis. The assay is classed as cell-based.
The target of assay [12] is T1, Protein cereblon/Histone acetyltransferase p300 (Homo sapiens). Nature of the assay: PROTAC activity at CRBN/HiBiT-tagged p300 in human HAP1 cells assessed as total cumulative degradation by measuring AUC at 10 nM measured over 24 hrs by luminescence based analysis. It is filed as cell-based.
Assay [13] shares this target. The assay can be described thus: PROTAC activity at CRBN/HiBiT-tagged p300 in human HAP1 cells assessed as total cumulative degradation by measuring AUC at 0.01 nM measured over 24 hrs by luminescence based analysis. The assay is classed as cell-based.
For assay [14] the target is unchanged. The assay can be described thus: PROTAC activity at CRBN/HiBiT-tagged p300 in human HAP1 cells assessed as total cumulative degradation by measuring AUC at 0.1 nM measured over 24 hrs by luminescence based analysis. The assay is classed as cell-based.
For assay [15] the target is unchanged. Nature of the assay: PROTAC activity at CRBN/HiBiT-tagged p300 in human HAP1 cells assessed as induction of p300 degradation by measuring degradation rate at 10 nM measured over 24 hrs by luminescence based analysis. It is filed as cell-based.
In assay [16] the target is T2, Protein cereblon/CREB-binding protein (Homo sapiens). The assay can be described thus: PROTAC activity at CRBN/HiBiT-tagged CBP in human HAP1 cells assessed as total cumulative degradation by measuring AUC at 100 nM measured over 24 hrs by luminescence based analysis. The assay is classed as cell-based.
For assay [17], the target named is T1, Protein cereblon/Histone acetyltransferase p300 (Homo sapiens). The assay can be described thus: PROTAC activity at CRBN/HiBiT-tagged p300 in human HAP1 cells assessed as total cumulative degradation by measuring AUC at 100 nM measured over 24 hrs by luminescence based analysis. The assay is classed as cell-based.
Assay [18] concerns the target Protein cereblon/Bromodomain-containing protein 4 (Homo sapiens) (UniProt O60885+Q96SW2). The assay can be described thus: PROTAC activity at CRBN/HiBiT-tagged BRD4 in human HAP1 cells assessed as induction of BRD4 degradation measured over 24 hrs by luminescence based analysis. The assay is classed as cell-based.
Assay [19] has as its target T2, Protein cereblon/CREB-binding protein (Homo sapiens). Nature of the assay: PROTAC activity at CRBN/HiBiT-tagged CBP in human HAP1 cells assessed as total cumulative degradation by measuring AUC at 0.01 nM measured over 24 hrs by luminescence based analysis. The assay is classed as cell-based.
The target in assay [20] is T1, Protein cereblon/Histone acetyltransferase p300 (Homo sapiens). Nature of the assay: PROTAC activity at CRBN/HiBiT-tagged p300 in human HAP1 cells assessed as induction of p300 degradation by measuring degradation rate at 1000 nM measured over 24 hrs by luminescence based analysis. It is filed as cell-based.
For assay [21] the target is unchanged. Nature of the assay: PROTAC activity at CRBN/HiBiT-tagged p300 in human HAP1 cells assessed as induction of p300 degradation by measuring maximal efficacy at 1000 nM measured over 24 hrs by luminescence based analysis relative to control. The assay is classed as cell-based.
Assay [22] concerns the target T2, Protein cereblon/CREB-binding protein (Homo sapiens). Nature of the assay: PROTAC activity at CRBN/HiBiT-tagged CBP in human HAP1 cells assessed as induction of CBP degradation by measuring degradation rate at 100 nM measured over 24 hrs by luminescence based analysis. It is filed as cell-based.
For assay [23] the target is unchanged. The assay can be described thus: PROTAC activity at CRBN/HiBiT-tagged CBP in human HAP1 cells assessed as induction of CBP degradation by measuring degradation rate at 1000 nM measured over 24 hrs by luminescence based analysis. It is filed as cell-based.
For assay [24] the target is unchanged. The assay can be described thus: PROTAC activity at CRBN/HiBiT-tagged CBP in human HAP1 cells assessed as induction of CBP degradation by measuring maximal efficacy at 10 nM measured over 24 hrs by luminescence based analysis relative to control. The assay is classed as cell-based.
The target is the same in assay [25]. The assay can be described thus: PROTAC activity at CRBN/HiBiT-tagged CBP in human HAP1 cells assessed as induction of CBP degradation by measuring maximal efficacy at 100 nM measured over 24 hrs by luminescence based analysis relative to control. The assay is classed as cell-based.
Assay [26] has the same target. Nature of the assay: PROTAC activity at CRBN/HiBiT-tagged CBP in human HAP1 cells assessed as induction of CBP degradation by measuring maximal efficacy at 1000 nM measured over 24 hrs by luminescence based analysis relative to control. It is filed as cell-based.
For assay [27] the target is unchanged. Nature of the assay: PROTAC activity at CRBN/HiBiT-tagged CBP in human HAP1 cells assessed as induction of CBP degradation by measuring degradation rate at 10 nM measured over 24 hrs by luminescence based analysis. It is filed as cell-based.

T1 sequence (Q09472 2-2414 limits assumed): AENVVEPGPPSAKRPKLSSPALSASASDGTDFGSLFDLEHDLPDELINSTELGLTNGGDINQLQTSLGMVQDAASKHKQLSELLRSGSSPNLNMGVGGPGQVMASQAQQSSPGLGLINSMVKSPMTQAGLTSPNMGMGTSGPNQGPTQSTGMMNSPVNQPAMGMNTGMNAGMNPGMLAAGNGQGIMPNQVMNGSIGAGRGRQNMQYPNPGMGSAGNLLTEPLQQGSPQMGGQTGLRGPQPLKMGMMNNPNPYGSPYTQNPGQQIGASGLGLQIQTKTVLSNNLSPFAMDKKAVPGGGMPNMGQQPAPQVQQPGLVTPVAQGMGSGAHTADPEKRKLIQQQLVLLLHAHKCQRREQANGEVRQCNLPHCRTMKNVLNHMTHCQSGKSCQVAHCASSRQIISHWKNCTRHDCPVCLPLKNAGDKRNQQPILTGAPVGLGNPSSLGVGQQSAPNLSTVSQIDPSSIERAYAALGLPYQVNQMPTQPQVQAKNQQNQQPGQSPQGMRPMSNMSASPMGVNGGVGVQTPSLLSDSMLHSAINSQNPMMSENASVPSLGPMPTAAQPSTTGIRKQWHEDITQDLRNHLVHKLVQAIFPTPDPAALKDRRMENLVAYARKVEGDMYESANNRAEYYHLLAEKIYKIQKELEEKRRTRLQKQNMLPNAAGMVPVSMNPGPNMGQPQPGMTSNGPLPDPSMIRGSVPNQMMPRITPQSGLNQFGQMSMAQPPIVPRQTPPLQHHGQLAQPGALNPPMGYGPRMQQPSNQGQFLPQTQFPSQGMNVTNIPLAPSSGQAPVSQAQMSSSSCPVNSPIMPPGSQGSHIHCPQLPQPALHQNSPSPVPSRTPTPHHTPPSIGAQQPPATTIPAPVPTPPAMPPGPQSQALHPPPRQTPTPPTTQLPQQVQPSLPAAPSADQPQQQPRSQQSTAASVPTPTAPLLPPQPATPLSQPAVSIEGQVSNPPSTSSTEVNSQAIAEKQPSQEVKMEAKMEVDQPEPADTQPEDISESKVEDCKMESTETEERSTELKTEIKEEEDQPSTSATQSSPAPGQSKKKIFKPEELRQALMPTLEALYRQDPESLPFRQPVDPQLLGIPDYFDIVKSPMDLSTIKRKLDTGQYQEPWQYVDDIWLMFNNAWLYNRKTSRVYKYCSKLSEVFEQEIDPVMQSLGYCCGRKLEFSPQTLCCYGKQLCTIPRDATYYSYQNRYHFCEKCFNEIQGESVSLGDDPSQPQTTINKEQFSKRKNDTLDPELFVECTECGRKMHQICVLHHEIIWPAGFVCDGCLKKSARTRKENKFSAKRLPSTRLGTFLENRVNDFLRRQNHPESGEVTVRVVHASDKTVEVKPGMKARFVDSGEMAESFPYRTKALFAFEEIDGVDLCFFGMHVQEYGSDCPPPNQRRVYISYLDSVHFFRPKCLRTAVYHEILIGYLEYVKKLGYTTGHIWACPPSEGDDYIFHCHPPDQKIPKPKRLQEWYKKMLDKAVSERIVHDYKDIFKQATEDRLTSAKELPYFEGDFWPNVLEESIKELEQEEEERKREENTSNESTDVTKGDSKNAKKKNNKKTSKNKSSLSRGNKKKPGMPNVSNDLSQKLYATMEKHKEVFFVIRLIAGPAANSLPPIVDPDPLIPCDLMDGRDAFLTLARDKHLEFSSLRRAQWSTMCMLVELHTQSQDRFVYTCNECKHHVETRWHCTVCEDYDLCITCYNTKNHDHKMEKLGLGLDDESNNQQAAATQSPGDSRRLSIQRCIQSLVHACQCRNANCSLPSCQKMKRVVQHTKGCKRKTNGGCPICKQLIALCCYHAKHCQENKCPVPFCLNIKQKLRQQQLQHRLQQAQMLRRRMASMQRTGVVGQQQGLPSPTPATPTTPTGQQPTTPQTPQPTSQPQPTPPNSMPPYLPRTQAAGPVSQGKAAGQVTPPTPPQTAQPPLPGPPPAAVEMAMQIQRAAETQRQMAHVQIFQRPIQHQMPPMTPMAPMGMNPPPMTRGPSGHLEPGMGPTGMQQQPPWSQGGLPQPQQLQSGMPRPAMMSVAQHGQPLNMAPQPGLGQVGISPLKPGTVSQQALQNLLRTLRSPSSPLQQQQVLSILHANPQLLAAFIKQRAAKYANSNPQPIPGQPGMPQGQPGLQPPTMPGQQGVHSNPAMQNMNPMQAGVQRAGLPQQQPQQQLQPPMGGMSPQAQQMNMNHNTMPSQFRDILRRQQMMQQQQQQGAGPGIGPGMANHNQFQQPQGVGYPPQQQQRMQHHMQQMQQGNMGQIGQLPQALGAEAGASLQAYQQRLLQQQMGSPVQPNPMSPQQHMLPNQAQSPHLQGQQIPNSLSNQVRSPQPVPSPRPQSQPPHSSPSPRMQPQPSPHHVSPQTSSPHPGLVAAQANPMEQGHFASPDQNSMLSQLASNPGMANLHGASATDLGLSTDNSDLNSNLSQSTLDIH
T1 sequence (Q96SW2 whole entry partner): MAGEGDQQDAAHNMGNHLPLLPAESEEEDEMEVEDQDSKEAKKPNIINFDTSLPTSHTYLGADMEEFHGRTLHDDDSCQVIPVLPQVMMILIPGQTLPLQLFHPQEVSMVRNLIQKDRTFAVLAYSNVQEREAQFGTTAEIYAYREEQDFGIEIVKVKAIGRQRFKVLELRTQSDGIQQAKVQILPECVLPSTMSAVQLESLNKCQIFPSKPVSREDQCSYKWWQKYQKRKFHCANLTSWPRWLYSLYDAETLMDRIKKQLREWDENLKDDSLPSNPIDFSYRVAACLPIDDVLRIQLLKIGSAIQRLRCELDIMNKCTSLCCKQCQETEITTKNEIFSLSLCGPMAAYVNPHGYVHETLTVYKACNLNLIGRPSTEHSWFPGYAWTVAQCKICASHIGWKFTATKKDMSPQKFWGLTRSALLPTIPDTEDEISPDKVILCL
Sequence of Protein cereblon/Bromodomain-containing protein 4 (Homo sapiens) (Q96SW2 whole entry, looked up, other chains not shown): as the sequence (Q96SW2 whole entry partner) above

Consider `CNC(=O)N1CCc2c(c(N3CCCc4cc(-c5cnn(CC(=O)NCCOCCOCCOCCOCCOCCOCCNc6ccc7c(c6)C(=O)N(C6CCC(=O)NC6=O)C7=O)c5)c(C(F)F)cc43)nn2C2CCOCC2)C1` (configuration not stated), for which the AUC in assay [1] was 26.1; in assay [2], 23.6; in assay [3], 26.1; in [5], 22.8; in assay [6] it was 23; in [11], 25. Besides, the AUC in assay [12] was determined as 22.7; in assay [13], 27.6; in assay [14] it was 27; in assay [16] it was 23.2; in assay [17], 22.4; in [19] it was 21.6. For the same compound, the result in assay [4] and in assay [9] was Active. Further, the Activity was 0.02 h⁻¹ in assay [7] and 0.006 h⁻¹ in assay [15]. For the same compound, the Emax in [8] came to 19%; in assay [10], 21%. Moreover, the result in assay [18] was inactive.
Regarding `CNC(=O)N1CCc2c(c(N3CCN(C(=O)NCCOCCOCCOCCOCCNc4ccc5c(c4)C(=O)N(C4CCC(=O)NC4=O)C5=O)c4cc(-c5cnn(C)c5)c(C(F)(F)F)cc43)nn2C2CCOCC2)C1` (configuration not stated), the AUC in [1] came out at 27.7; in assay [2], 24.7; in [3], 22.1; in assay [5], 24.4; in [6] it was 25.1; in assay [11], 24.2. Also, the AUC in [12] is 26.9; in [13], 27.2; in assay [14] it was 27.3; in assay [16], 24.6; in [17], 25.5; in assay [19], 24.1. Further, the outcome in [4] and in [9] was Active. In addition, the Activity in assay [20] worked out at 0.009 h⁻¹. For the same compound, the maximum response (Emax) in assay [21] amounted to 26%. Moreover, in assay [18], the result was inactive.
As for `CNC(=O)N1CCc2c(c(N3CCCc4cc(-c5cnn(CC(=O)NCCOCCOCCOCCOCCNc6ccc7c(c6)C(=O)N(C6CCC(=O)NC6=O)C7=O)c5)c(C(F)F)cc43)nn2C2CCOCC2)C1` (configuration not stated), the AUC worked out at 25.8 in assay [1]; 23.3 in assay [2]; 15.8 in assay [3]; 23.4 in assay [5]; 22.2 in assay [6]; 17.8 in assay [11]. Moreover, the AUC in [12] came out at 21.3; in [13], 28; in assay [14] it was 26.8; in assay [16], 18; in assay [17] it was 16.8; in assay [19], 22.4. Moreover, the Activity in assay [22] was 0.11 h⁻¹; in assay [23] it was 0.12 h⁻¹; in [7], 0.11 h⁻¹; in assay [20], 0.11 h⁻¹; in [15], 0.03 h⁻¹; in [27] it was 9.7 10^-3/hr. For the same compound, the result in assay [4] and in assay [9] was Active. The maximal response (Emax) in assay [24] was 22%; in assay [25], 42%; in assay [8] it was 61%; in assay [26], 42%; in [10], 51%; in assay [21], 55%. Further, the outcome in [18] was inactive.
In the case of `CNC(=O)N1CCc2c(c(N3CCN(C(=O)NCCOCCOCCOCCOCCOCCOCCNc4ccc5c(c4)C(=O)N(C4CCC(=O)NC4=O)C5=O)c4cc(-c5cnn(C)c5)c(C(F)(F)F)cc43)nn2C2CCOCC2)C1` (configuration not stated), the AUC in assay [1] is 27.4; in assay [2], 24.5; in assay [3], 20.5; in [5], 24.4; in assay [6] it was 24.2; in assay [11] it was 23. Besides, the AUC in [12] came out at 26.4; in assay [13], 27.7; in assay [14], 27.5; in assay [16], 24.1; in [17] it was 24.2; in assay [19], 24.9. Also, the outcome in assay [4] and in assay [9] was Active. The Activity in assay [20] was determined as 0.05 h⁻¹. Further, in [21], the Emax turned out to be 33%. Besides, in assay [18], the result was inactive.
In the case of `CNC(=O)N1CCc2c(c(N3CCN(C(=O)NCCOCCNc4ccc5c(c4)C(=O)N(C4CCC(=O)NC4=O)C5=O)c4cc(-c5cnn(C)c5)c(C(F)(F)F)cc43)nn2C2CCOCC2)C1` (configuration not stated), the AUC in assay [1] amounted to 26.9; in assay [2], 23.9; in assay [3], 22.3; in [5] it was 25; in assay [6] it was 24.9; in [11], 21.4. The AUC in [12] amounted to 27; in [13], 27.5; in assay [14] it was 27.5; in [16], 23.6; in assay [17], 26.2; in assay [19] it was 23.4. The Activity in [23] is 0.036 h⁻¹; in [20], 0.02 h⁻¹. For the same compound, the Emax in assay [26] was 26%; in [21], 20%. The result in assay [18] was inactive.

As a reminder, the Emax is the maximal effect, on the per cent scale that the assay sets.
